Molecules are shown by their SMILES.

The experiment concerns the target Alcohol dehydrogenase (Equus caballus, UniProt P00327+P00328). The experiment can be described thus: Inhibition constant was evaluated against horse liver alcohol dehydrogenase.
With `Nc1ncnc2c1ncn2CCCS(=O)(=O)O`, the Inhibition constant is on record as 4.9 mM. As for `Nc1ncnc2c1ncn2CCS(=O)(=O)O`, the figure is 4.3 mM; as for `Nc1ncnc2c1ncn2C1O[C@H](CO)[C@H](S(=O)(=O)O)[C@H]1O` (stereo partly specified), 1.2 mM.

As to `Nc1ncnc2c1ncn2C1O[C@H](CS(=O)(=O)O)[C@@H](O)[C@H]1O` (stereo partly specified), the Inhibition constant was 0.18 mM. In the case of `COP(=O)(O)OC[C@H]1OC(n2cnc3c(N)ncnc32)[C@H](O)[C@@H]1O` (stereo partly specified), the Inhibition constant stood at 0.44 mM. As for `Nc1ncnc2c1ncn2[C@@H]1O[C@H](COP(=O)(O)O)[C@@H](O)[C@H]1O` [ADENOSINE PHOSPHATE], the figure is 0.038 mM.

These data come from ChEMBL document CHEMBL1121822, “Sulfonate analogues of adenosine nucleotides as inhibitors of nucleotide-binding enzymes” (J Med Chem, 1981).
